Experimental data as given in US20250281929A1, “MICROFLUIDIC DEVICE AND USES THEREOF” (CASE WESTERN RESERVE UNIVERSITY, priority 2020, published 2025).

Assays:
[1] = test system: healthy RBCs; assay: microfluidic assay of RBC mediated microvascular occlusion (micropillar arrays with integrated electrical impedance measurement); type: cell-based, human; conditions: RBCs stiffened with 0.08% w/v glutaraldehyde 10 min, 20% hematocrit, mean±SD, N=4; for RBC Electrical Impedance Index (REI): impedance at 10 kHz
Procedure: In order to validate the microfluidic device functionality of assessing RBC mediated microvascular occlusion, healthy RBCs were isolated and treated with 0.08% w/v glutaraldehyde (Sigma Aldrich) for 10 min at room temperature. The glutaraldehyde-stiffened RBCs were then washed with PBS, mixed with untreated healthy RBCs from the same donor at either 1% or 2% v/v ratio, and re-suspended in PBS at 20% hematocrit for testing. Healthy RBCs from the same healthy donor were included in the study design as control.
Microchannels were initially washed with absolute ethanol (100%) and PBS, which was followed by incubation with 2% bovine serum albumin (BSA) overnight to prevent non-specific binding of RBCs to the channel walls. A Flow-EZ™ microfluidic flow control system (Fluigent, Lowell, MA) was used to regulate the flow (FIG. 12). An impedance analyzer (Agilent 4294A, Santa Clara, CA) coupled with a custom printed-circuit board was used to perform electrical impedance measurements. Briefly, impedance magnitude across each of the 3-μm to 10-μm micropillar arrays was recorded over the frequency range of 40 Hz-1 MHz before introducing blood into the microchannel and after completing the washing step. […]
Prior to the experiment, PBS was perfused through the microchannel at 100 mBar for 15 min to allow for any volumetric changes of the microchannel. Thereafter, the baseline impedance reading was obtained for each micropillar array without stopping the PBS flow. […] A second impedance reading was then obtained for each micropillar array upon the conclusion of the post-perfusion wash step. […] For select experiments, the electrical impedance of the 3-μm micropillar array was continuously monitored over the entire duration of the experiment.
To determine the association between the electrical impedance change and microcapillary occlusion in the microchannel, an Olympus IX83 inverted motorized microscope with Olympus CellSense live-cell imaging and analysis software were used to obtain high-resolution microscopic images. The images were further processed by Adobe Photoshop software (San Jose, CA), in which the obstructed microcapillaries were manually counted. […]
[formula] [formula] • where, • n=Total number of capillary networks within the area of interest • i=The i^th capillary network within the area of interest • Oi; =The number of microcapillary occlusion in the i^th capillary network • Ni=Total number of microcapillaries in the i^th capillary network • Ii1=The first electrical impedance reading of the i^th capillary network • Ii2=The second electrical impedance reading of the i^th capillary network […]

[2] = test system: RBC; assay: MIRCA functional assay of RBC deformability, quantitative microcapillary occlusion (Occlusion Index); type: cell-based, human; conditions: people with variant SCD (HbSC) and SCA (HbSS)
Description: Abnormal RBC deformability contributes to the underlying pathophysiology of SCD, and we tested this in variant SCD and sickle cell trait (SCT). We have developed MIRCA, a novel functional assay of RBC deformability, assessed by quantitative microcapillary occlusion (‘Occlusion Index, OI’, FIG. 18). This in vitro test recapitulates key geometric features of the capillary bed: >80,000 narrow openings and side anastomoses ‘on-a-chip’, under normoxia or hypoxia (FIG. 18).

[3] = sample 98% healthy RBCs and 2% stiff RBCs
[4] = sample 99% healthy RBCs and 1% stiff RBCs

O=CCCCC=O [glutaraldehyde]
RBC Electrical Impedance Index (REI) [1, 3]: 20.99% | RBC Occlusion Index (ROI) [1, 3]: 36.16% | RBC Electrical Impedance Index (REI) [1, 4]: 9.40% | RBC Occlusion Index (ROI) [1, 4]: 17.15%

NC(=O)NO [hydroxyurea]
association of RBC Occlusion Index (OI) with drug use [2]: inversely associated
